Where two headings read alike, the source gives them in different places. Each block holds one compound with its values, some of them ahead of it.
Experiments:
hCOX-1 = biological target: T1, hCOX-1 (Homo sapiens, UniProt P23219); experiment: hCOX-1 activity, TMPD oxidation, human platelet microsomes, arachidonic acid substrate; format: biochemical; settings: for inhibition at 25 µM: read-out: % enzymatic inhibition of hCOX-1 at 25 μM, compounds precipitated at higher concentrations
T1 construct: using arachidonic acid as substrate for hCOX-1 from human platelet microsomes; from tissue; host or cells: microsomes of human platelets isolated from buffy coats
Experimental: Human platelets were isolated by centrifugation from buffy coats obtained from the Centro de Transfusion de Galicia (Santiago de Compostela, Spain) and prepared as described.
The upper layer obtained in this centrifugation, containing platelet rich plasma, was gently removed and centrifuged at 850 g for 20 min at 4 °C in a centrifuge (J2-MI, Beckman Instruments, Inc., Palo Alto, California, USA). The platelet pellet was recovered, resuspended with washing buffer, and centrifuged again at 850 g for 20 min at 4 °C. To prepare human platelet microsomes, the resultant platelet pellet of the above centrifugation was resuspended in 7 mL of sodium phosphate buffer (10 mM, pH 7.4), sonicated at 50 W for 50 s (5 pulses of 10 s), and centrifuged at 850 g for 20 min at 4 °C in a refrigerated centrifuge. The pellet was discarded and the supernatant was subsequently centrifuged at 10 000 g for 10 min at 4 °C in the same centrifuge. The pellet obtained in this centrifugation was discarded and the supernatant was finally centrifuged at 100 000 g for 1 h at 4 °C in an ultracentrifuge (Beckman Instruments, Inc., Palo Alto, California, USA).
The biological evaluation of the test drugs on hCOX-1 activity (bisdioxygenase and peroxidase reactions) was investigated by measuring their effects on the oxidation of N, N, N’, N’-tetramethyl-p-phenylenediamine (TMPD) to N, N, N’, N’-tetramethyl-p-phenylene-diimine, using arachidonic acid as substrate for hCOX-1 from human platelet microsomes (obtained as described in the above paragraph). The formation of N, N, N’, N’-tetramethyl-p-phenylenediimine (a coloured compound) from N, N, N’, N’-tetramethyl-p-phenylenediamine catalyzed by COX can be detected spectrophotometrically at 600 nm. In this study, hCOX activity was evaluated using a spectrophotometric method. Briefly, 0.1 mL of Tris–HCl buffer (100 mM, pH 8) containing […], […], various concentrations of the test drugs, and appropriate amounts of hCOX-1 (0.08 A600 U/min) were incubated for short periods of time (3–5 min) to avoid a notable loss of COX activity at 37 °C in a flat-bottom 96-well microtest plate (BD Biosciences, Franklin Lakes, NJ, USA) placed in the dark multimode microplate reader chamber. After this incubation period, the reaction was started by adding (final concentration) […] and the formation of N, N,N’,N’-tetramethyl-p-phenylenediimine from TMPD, i.e., the increase in absorbance at 600 nm was measured at 37 °C in a multi-mode microplate reader (Fluostar Optima, BMG Labtech GmbH, Offenburg, Germany) for 25 s, aperiod in which the absorbance increased linearly from the beginning. The specific absorbance (used to obtain the final results) was calculated after subtraction of the background absorbance generated in wells containing a blank solution, i.e., all components except the COX isoform, which were replaced by a Tris–HCl buffer solution.
Control experiments were carried out simultaneously by replacing the test drugs (new compounds and reference inhibitors) with appropriate dilutions of the vehicles. In addition, the possible capacity of the above test drugs to modify the absorbance of the reaction mixture due to non-enzymatic inhibition (e.g., for directly reacting with TMPD) was determined by adding these drugs to solutions containing only TMPD in a Tris–HCl buffer solution.

hMAO-B [1] = biological target: T2, hMAO-B (Homo sapiens, UniProt P27338); experiment: hMAO-B enzymatic inhibition, Amplex Red MAO assay (H2O2 from p-tyramine); format: biochemical
T2 construct: purchased Sigma-Aldrich; host or cells: insect cells (BTI-TN-5B1-4) infected with recombinant baculovirus; microsomal preparation
T2 sequence (P27338 1-520): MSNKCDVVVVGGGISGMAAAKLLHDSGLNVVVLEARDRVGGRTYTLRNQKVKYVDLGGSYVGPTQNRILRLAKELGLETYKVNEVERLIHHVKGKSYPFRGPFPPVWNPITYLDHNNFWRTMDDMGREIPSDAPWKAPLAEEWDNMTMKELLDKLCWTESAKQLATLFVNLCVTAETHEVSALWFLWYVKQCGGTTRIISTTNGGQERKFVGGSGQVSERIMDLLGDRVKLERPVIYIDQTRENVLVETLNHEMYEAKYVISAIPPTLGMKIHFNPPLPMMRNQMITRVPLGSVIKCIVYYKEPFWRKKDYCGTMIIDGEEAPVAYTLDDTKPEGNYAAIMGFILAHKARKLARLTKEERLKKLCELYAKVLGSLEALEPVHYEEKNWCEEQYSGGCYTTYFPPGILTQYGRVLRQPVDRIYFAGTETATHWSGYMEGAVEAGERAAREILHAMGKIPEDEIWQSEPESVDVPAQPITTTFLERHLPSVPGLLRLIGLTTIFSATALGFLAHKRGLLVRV
Excerpt: (§1) The biological evaluation on hMAO activity was investigated by measuring effects on the production of hydrogen peroxide (H2O2) from p-tyramine, using the Amplex® Red MAO assay kit and microsomal isoforms prepared from insect cells (BTI-TN-5B1-4) infected with recombinant baculovirus containing cDNA inserts for hMAO-A and hMAO-B. The production of H2O2 catalysed by the MAO isoforms was detected using 10-acetyl-3,7-dihydroxyphenoxazine (Amplex® Red reagent), a non fluorescent and highly sensitive probe that reacts with H2O2 in the presence of horseradish peroxidase to produce a fluorescent product, resorufin.
The selected compounds were dissolved in DMSO (Sigma-Aldrich, Alcobendas, Madrid, Spain) to prepare 10 mM stock solutions, which were kept for storage at −20 °C. Percentage of DMSO used in the experiments was never higher than 1%. Human recombinant MAO isoforms (native enzymes), used in the experiments, were purchased from Sigma-Aldrich (Alcobendas, Madrid, Spain). Test compounds were acquired from Sigma-Aldrich and Vitro S.A. (Madrid, Spain).
After this incubation period, the reaction was started by adding (final concentrations) 200 μM Amplex® Red reagent, 1 U/mL horseradish peroxidase and 1 mMp-tyramine. […] Control experiments were carried out simultaneously by replacing the test drugs (new compounds and reference inhibitor) with appropriate dilutions of the vehicles. In addition, the possible capacity of the above test drugs to modify the fluorescence generated in the reaction mixture due to non-enzymatic inhibition (e.g., for directly reacting with Amplex® Red reagent) was determined by adding these drugs to solutions containing only the Amplex® Red reagent in a sodium phosphate buffer. To determine the kinetic parameters of hMAO (Km and Vmax), the corresponding enzymatic activity was evaluated (under the experimental conditions described above) in the presence of a number (a wide range) of p-tyramine concentrations.
The specific fluorescence emission (used to obtain the final results) was calculated after subtraction of the background activity, which was determined from wells containing all components except the hMAO, which were replaced by a sodium phosphate buffer solution.

hMAO-A = biological target: T3, hMAO-A (Homo sapiens, UniProt P21397); experiment: hMAO-A enzymatic inhibition, Amplex Red MAO assay (H2O2 from p-tyramine); format: biochemical
T3 construct: purchased Sigma-Aldrich; host or cells: insect cells (BTI-TN-5B1-4) infected with recombinant baculovirus; microsomal preparation
T3 sequence (P21397 1-527): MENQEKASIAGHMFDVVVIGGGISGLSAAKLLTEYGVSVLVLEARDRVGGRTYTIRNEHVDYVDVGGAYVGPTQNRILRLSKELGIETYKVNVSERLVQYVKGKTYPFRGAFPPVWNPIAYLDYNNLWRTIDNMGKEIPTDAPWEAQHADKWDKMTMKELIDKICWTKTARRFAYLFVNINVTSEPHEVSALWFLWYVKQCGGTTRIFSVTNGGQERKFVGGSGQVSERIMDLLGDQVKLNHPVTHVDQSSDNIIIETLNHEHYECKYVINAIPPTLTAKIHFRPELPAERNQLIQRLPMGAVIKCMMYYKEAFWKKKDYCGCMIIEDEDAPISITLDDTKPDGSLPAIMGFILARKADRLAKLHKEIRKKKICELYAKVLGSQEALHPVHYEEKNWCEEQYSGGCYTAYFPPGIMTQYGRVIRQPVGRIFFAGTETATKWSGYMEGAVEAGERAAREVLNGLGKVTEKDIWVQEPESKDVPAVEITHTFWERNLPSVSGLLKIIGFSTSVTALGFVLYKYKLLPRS
Excerpt: as §1, with “resorufin. […]” for “resorufin.”
After this incubation period, the reaction was started by adding (final concentrations) 200 μM Amplex® Red reagent, 1 U/mL horseradish peroxidase and 1 mMp-tyramine. […] In addition, the possible capacity of the above test drugs to modify the fluorescence generated in the reaction mixture due to non-enzymatic inhibition (e.g., for directly reacting with Amplex® Red reagent) was determined by adding these drugs to solutions containing only the Amplex® Red reagent in a sodium phosphate buffer. To determine the kinetic parameters of hMAO (Km and Vmax), the corresponding enzymatic activity was evaluated (under the experimental conditions described above) in the presence of a number (a wide range) of p-tyramine concentrations. […]

hMAO-B [2] = tested on: hMAO-B; design: method as in PMID 19948168, PMID 14965331; settings: cited from earlier work
[3] = Table 2, mean ± S.E.M., n = 3, control assays, read-out: IC50 hCOX-1
[4] = Table 3, mean ± S.E.M., n = 3, rational assays selected by the modeling, read-out: IC50 hCOX-1
[5] = Table 2, mean ± S.E.M., n = 3, rational assays selected by the modeling, read-out: IC50 hMAO-B
[6] = highest concentration tested 100 μM, read-out: IC50 hMAO-B (rounded)
[7] = Table 3, mean ± S.E.M., n = 3, control assays, read-out: IC50 hMAO-B
[8] = highest concentration tested 100 μM, read-out: IC50 hCOX-1 (rounded)

T1 sequence (P23219 24-599): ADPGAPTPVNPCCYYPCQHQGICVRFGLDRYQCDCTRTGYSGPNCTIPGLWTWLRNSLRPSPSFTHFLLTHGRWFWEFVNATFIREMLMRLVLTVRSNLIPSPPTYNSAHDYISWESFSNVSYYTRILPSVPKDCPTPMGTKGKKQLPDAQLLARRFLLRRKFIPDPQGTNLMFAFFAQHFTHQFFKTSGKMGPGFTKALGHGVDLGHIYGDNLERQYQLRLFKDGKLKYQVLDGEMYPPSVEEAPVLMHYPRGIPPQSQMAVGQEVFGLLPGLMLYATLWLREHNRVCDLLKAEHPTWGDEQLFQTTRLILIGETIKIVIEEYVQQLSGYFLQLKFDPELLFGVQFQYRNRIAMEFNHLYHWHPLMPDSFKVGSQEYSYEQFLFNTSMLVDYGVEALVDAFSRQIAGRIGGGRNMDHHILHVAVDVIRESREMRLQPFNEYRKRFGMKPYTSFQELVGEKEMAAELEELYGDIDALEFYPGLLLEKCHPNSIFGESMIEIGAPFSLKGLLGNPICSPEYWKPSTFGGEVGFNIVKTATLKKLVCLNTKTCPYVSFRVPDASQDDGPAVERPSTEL

IC50 (hCOX-1; [3]): 0.094 ± 0.006 µM
IC50 (hCOX-1; [4]): 0.094 ± 0.006 µM
SMILES: COc1ccc(-c2nc(C(=O)N3CCN(C)CC3)sc2-c2ccc(OC)cc2)cc1 [FR122047]

IC50 (hMAO-B [1]; [5]): > 100 µM
IC50 (hMAO-B [1]; [6]): > 100 µM
IC50 (hMAO-A; Table 2, mean ± S.E.M., n = 3, control assays, read-out: IC50 hMAO-A): > 100 µM
IC50 (hCOX-1; [3]): > 100 µM
SMILES: COc1ccc2nc(NC(=O)Nc3ccccc3)sc2c1 [Frentizole]

IC50 (hMAO-B [1]; [7]): > 100 µM
IC50 (hCOX-1; [4]): > 100 µM
IC50 (hCOX-1; [8]): > 100 µM
SMILES: Cc1cccc(-c2n[nH]cc2-c2ccc3ncccc3n2)n1 [GW786460X]

IC50 (hMAO-B [1]; [7]): > 100 µM
inhibition at 25 µM (hCOX-1): 28%
SMILES: O=Nc1c(-c2c(O)[nH]c3ccccc23)[nH]c2ccccc12 [Indirubin-3′-monoxime, indirubin-3′-monoxime]

IC50 (hMAO-B [1]; [7]): > 100 µM
inhibition at 25 µM (hCOX-1): 19.5%
SMILES: CS(=O)(=O)CCNCc1ccc(-c2ccc3ncnc(Nc4ccc(OCc5cccc(F)c5)c(Cl)c4)c3c2)o1 [Lapatinib, lapatinib]

SMILES: COc1cc(/C=C/C(=O)N2CCC=CC2=O)cc(OC)c1OC [Piperlongumine, piperlongumine]
IC50 (hMAO-B [1]; [5]): 65.1 ± 2.99 µM
IC50 (hMAO-B [1]; [6]): 65 µM
IC50 (hMAO-A): > 100 µM
IC50 (hCOX-1): > 100 µM

IC50 (hMAO-B [1]; [7]): > 100 µM
IC50 (hCOX-1; [4]): 25.4 ± 3.8 µM
IC50 (hCOX-1; [8]): 25 µM
SMILES: O=C1NC(=O)C(c2c[nH]c3ccccc23)=C1c1c[nH]c2ccccc12 [RO-316233]

IC50 (hMAO-B [1]; [7]): > 100 µM
IC50 (hCOX-1; [4]): 23.6 ± 3.53 µM
IC50 (hCOX-1; [8]): 24 µM
SMILES: Oc1ccc(-c2nc(-c3ccncc3)c(-c3ccc(F)cc3)[nH]2)cc1 [SB-202190]

SMILES: NS(=O)(=O)Cc1noc2ccccc12 [zonisamide]
IC50 (hMAO-B [2]; read-out: IC50 of zonisamide (MAO-B)): ~25 µM
Ki (hMAO-B [2]; read-out: Ki of zonisamide (MAO-B)): 3.1 µM
